Experimental data from publication PMC11822664, “First‐In‐Human Dose Finding Study of Venadaparib (IDX‐1197), a Potent and Selective PARP Inhibitor, in Patients With Advanced Solid Tumors” (Cancer Medicine, 2025).

Assay: Plasma pharmacokinetics, noncompartmental analysis (Day 1 and Day 14)
Assay type: in vivo, human
Details: for Tmax: median (min-max)
Method: Pharmacokinetic and pharmacodynamic studies were performed during the first cycle of treatment. Plasma samples were analyzed for venadaparib concentration using liquid‐liquid extraction followed by high‐performance liquid chromatography, with detection by mass spectrometry. The plasma concentration–time data were analyzed using noncompartmental analysis (WinNonLin, version 8.0, SAS version 9.4 and R version 3.6.3) to derive pharmacokinetic parameters after the first dose (single‐dose parameters) and after the dose on Day 14 (multiple‐dose parameters). Pharmacodynamic studies were performed by evaluating Poly (ADP‐ribose) in peripheral blood mononuclear cells and quantifying tumor‐tissue lysates using the HT PARP in vivo Pharmacodynamic ELISA Kit II (R&D Systems, 4520‐096‐K).

[1] = day 1, Cohort 1: 2 mg once daily, 2 weeks on 1 week off, n=3, mean±SD
[2] = day 1, Cohort 2: 5 mg once daily, 2 weeks on 1 week off, n=3, mean±SD
[3] = day 1, Cohort 3: 10 mg once daily, 2 weeks on 1 week off, n=3, mean±SD
[4] = day 1, Cohort 4: 20 mg once daily, 2 weeks on 1 week off, n=3, mean±SD
[5] = day 1, Cohort 5: 20 mg once daily continuously, n=3, mean±SD
[6] = day 1, Cohort 6: 40 mg once daily continuously, n=3, mean±SD
[7] = day 1, Cohort 7: 80 mg once daily continuously, n=3, mean±SD
[8] = day 1, Cohort 8: 120 mg once daily continuously, n=3, mean±SD
[9] = day 1, Cohort 9: 160 mg once daily continuously, n=4, mean±SD
[10] = day 1, Cohort 10: 240 mg once daily continuously, n=3, mean±SD
[11] = day 14, Cohort 1: 2 mg once daily, 2 weeks on 1 week off, n=3, mean±SD

In the case of `O=C(c1cc(Cc2n[nH]c(=O)c3ccccc23)ccc1F)N1CC(CNC2CC2)C1` [venadaparib, Venadaparib], the “average increase in drug exposure” value (after 14 days of daily administration) is reported as 99%, the “Time to steady state” value (after initiation of daily dosing) is reported as “approximately 2 weeks” and the AUCinf [1] is reported as 780.62±401.58 (51.4%) [318.42-043.92] h*ug/L. The AUClast [1] was 593.00±274.64 (46.3%) [291.48-828.86] h*ug/L, the Cmax [1] was 84.50±54.00 (63.9%) [33.40-141.00] ng/mL and the T1/2β [1] was 11.64±4.54 (39.0%) [6.72-15.66] h. For the same compound, the Vz [1] was 47.20±13.15 (27.8%) [34.62-60.85] L, the Tmax (day 1, Cohort 1: 2 mg once daily, 2 weeks on 1 week off, n=3) was 1.92 (1.03-1.97) h and the AUCinf [2] was 1827.86±1666.87 (84.7%) [33.40-141.00] h*ug/L. For the same compound, the AUClast [2] was 1340.46±1006.85 (84.7%) [33.40-141.00] h*ug/L, the Cmax [2] was 180.00±48.57 (27.0%) [133.00-230.00] ng/mL and the T1/2β [2] was 10.52±3.54 (33.7%) [6.97-14.06] h. The Vz [2] was 57.08±26.96 (84.7%) [33.40-141.00] L, the Tmax (day 1, Cohort 2: 5 mg once daily, 2 weeks on 1 week off, n=3) was 3.00 (0.55-4.00) h and the AUCinf [3] was 3649.06±4836.80 (132.5%) [144.88-9167.47] h*ug/L. For the same compound, the AUClast [3] was 2519.97±3026.42 (120.1%) [127.22-5922.09] h*ug/L, the Cmax [3] was 204.17±173.02 (84.7%) [33.40-141.00] ng/mL and the T1/2β [3] was 9.94±3.14 (31.6%) [7.23-13.39] h. The Vz [3] was 333.81±505.10 (151.3%) [21.07-916.53] L, the Tmax (day 1, Cohort 3: 10 mg once daily, 2 weeks on 1 week off, n=3) was 3.00 (2.00-8.02) h and the AUCinf [4] was 3039.02±674.82 (22.2%) [2368.04-3717.62] h*ug/L. The AUClast [4] was 2754.42±727.50 (26.4%) [1991.23-3440.00] h*ug/L, the Cmax [4] was 380.00±146.81 (38.6%) [228.00-521.00] ng/mL and the T1/2β [4] was 7.91±2.11 (26.7%) [6.25-10.28] h. The Vz [4] was 80.18±39.12 (48.8%) [55.73-125.29] L, the Tmax (day 1, Cohort 4: 20 mg once daily, 2 weeks on 1 week off, n=3) was 3.00 (2.08-4.00) h and the AUCinf [5] was 12875.06±5816.24 (45.5%) [7832.01-19189.58] h*ug/L. The AUClast [5] was 10232.09±3651.74 (35.7%) [7292.97-14320.11] h*ug/L, the Cmax [5] was 1128.00±443.52 (39.3%) [862.00-1640.00] ng/mL and the T1/2β [5] was 9.98±3.76 (37.7%) [5.82-13.13] h. For the same compound, the Vz [5] was 23.05±4.34 (18.8%) [19.75-27.97] L, the Tmax (day 1, Cohort 5: 20 mg once daily continuously, n=3) was 2.93 (0.50-3.00) h and the AUCinf [6] was 15825.90±13925.93 (88.0%) [7229.41-31893.03] h*ug/L. The AUClast [6] was 14369.29±12181.96 (84.8%) [6801.11-28421.88] h*ug/L, the Cmax [6] was 2043.33±1547.82 (75.7%) [1110.00-3830.00] ng/mL and the T1/2β [6] was 6.87±0.36 (5.3%) [6.64-7.29] h. The Vz [6] was 37.48±21.36 (57.0%) [13.19-53.37] L, the Tmax (day 1, Cohort 6: 40 mg once daily continuously, n=3) was 2.00 (2.00-3.00) h and the AUCinf [7] was 31699.75±12751.32 (40.2%) [17104.01-40676.73] h*ug/L. The AUClast [7] was 27733.70±10788.09 (38.9%) [15336.37-34987.13] h*ug/L, the Cmax [7] was 3643.33±582.27 (16.0%) [2980.00-4070.00] ng/mL and the T1/2β [7] was 8.29±0.47 (5.7%) [7.81-8.75] h. The Vz [7] was 35.61±20.31 (57.0%) [23.61-59.06] L, the Tmax (day 1, Cohort 7: 80 mg once daily continuously, n=3) was 1.03 (1.00-3.00) h and the AUCinf [8] was 28572.20±24412.45 (85.4%) [12537.00-56667.70] h*ug/L. The AUClast [8] was 23020.92±16230.34 (70.5%) [12129.81-41674.88] h*ug/L, the Cmax [8] was 2923.33±1179.25 (40.3%) [2030.00-4260.00] ng/mL and the T1/2β [8] was 8.56±4.44 (51.9%) [4.97-13.53] h. For the same compound, the Vz [8] was 61.75±17.99 (29.1%) [41.34-75.31] L, the Tmax (day 1, Cohort 8: 120 mg once daily continuously, n=3) was 2.00 (1.95-2.07) h and the AUCinf [9] was 48298.24±7488.56 (15.5%) [39493.27-55858.21] h*ug/L. The AUClast [9] was 42174.71±5663.76 (13.4%) [35508.61-48321.59] h*ug/L, the Cmax [9] was 5295.00±628.68 (11.9%) [4820.00-6220.00] ng/mL and the T1/2β [9] was 8.15±1.31 (16.1%) [6.18-8.88] h. The Vz [9] was 39.02±4.02 (10.3%) [36.11-44.88] L, the Tmax (day 1, Cohort 9: 160 mg once daily continuously, n=4) was 2.00 (1.00-3.00) h and the AUCinf [10] was 37514.17±11745.33 (31.3%) [23968.05-44861.59] h*ug/L. For the same compound, the AUClast [10] was 35064.82±10936.96 (31.2%) [22440.89-41684.26] h*ug/L, the Cmax [10] was 4243.33±1097.38 (25.9%) [2980.00-4960.00] ng/mL and the T1/2β [10] was 5.86±0.27 (4.5%) [5.63-6.15] h. The Vz [10] was 58.25±20.01 (34.4%) [45.93-81.34] L, the Tmax (day 1, Cohort 10: 240 mg once daily continuously, n=3) was 2.03 (1.95-3.87) h and the “AUCinf,ss” value [11] was 1736.03±1605.80 (92.5%) [457.71-3538.38] h*ug/L. For the same compound, the “AUClast,ss” value [11] was 1364.99±1236.83 (90.6%) [418.50-2764.45] h*ug/L, the “Cmax,ss” value [11] was 164.83±158.82 (96.4%) [55.40-347.00] ng/mL and the T1/2β [11] was 10.12±3.11 (30.8%) [6.53-12.16] h. The “Vd,ss” value [11] was 26.55±15.98 (60.2%) [9.51-41.19] L.
